What was measured:
[1] = system: GLT-1; assay: GLT-1 content in brain of TBI rats; format: in vivo, SD rats; settings: 30 mg/kg ip, 7 d continuous administration, FIG. 4
Experimental: The experimental grouping and drug administration plan were as follows. • Sham operation group (Group P): saline was given with the same volume as in the CTMB group; • Model group (T group): a blank emulsion was given with the same volume as in the CTMB group; • Medium dose group (Group M): a dose of 30 mg/kg of CTMB emulsion injection was given.
The experimental grouping and drug administration plan were the same as the test 3. After 7 d of continuous administration to each group, the rats were deeply anesthetized, the heads were severed and the brains were removed, about 60-120 mg of hemispheric cortex on the blood side was taken out, 10 times volume of ice-cold centrifugation buffer used for biochemical assay was added, homogenized for 10 min under an ice bath, and then centrifuged for 30 min at 4° C. and 14000 rpm/min. The supernatants were taken to test the GLT-1 and GABA content according to the instructions of GLT-1 and GABA content assay kit, respectively. Glutamate transporter 1 (GLT-1) is an important glutamate transporter in the brain that transports extracellular glutamate to the intracellular compartment. γ-aminobutyric acid (GABA) is an important inhibitory neurotransmitter, and a dramatic increase in the concentration of extracellular glutamate in pathological conditions leads to neuronal hyperexcitability toxicity.

[2] = system: Parkinson's disease (PD) mice, 6-OHDA method; assay: 6-OHDA Parkinson's disease mice, rod-climbing experiment; format: in vivo, C57 mice; settings: Group D, CTMB 20 mg/kg ip
Experimental: The mice were randomly divided into a sham operation group (group S, given a blank emulsion with a volume equal to that of the administered group), a model group (group M, given a blank emulsion with a volume equal to that of the administered group), a CTMB group (20 mg/kg, group D), and a levodopa group (levodopa: benserazide hydrochloride=4:1, 12 mg/kg, group L), each group included 10-12 mice, and all of them were administered intraperitoneally.
Preoperatively, mice were fasted for 12 h, and mice were anesthetized with 4% isoflurane induction and maintained with 1.5% isoflurane. The mice were subsequently immobilized on a brain stereotaxic apparatus. The bregma and lambda points were exposed by gently wiping the cranial surface with a cotton swab after cutting the scalp. The stereotaxic apparatus was adjusted to align the heights of the bregma and lambda points, thereby leveling the skull. The bregma point was designated as the origin, the coordinates where the injection site was located were located, and the drill was used to drill a small hole in the skull above the injection site.
6-OHDA (12.5 μg/μL) was injected into the striatum region (AP+0.5 mm; ML+2.00 mm; DV-3.00 mm and-2.00 mm) of the mice, and 1 μL 6-OHDA was injected into each of the two points at a rate of 0.5 μL/min. The needle was left in place for 3 min after the injection was completed, and then the injection needle was lifted, and the scalp of the mice was sutured and disinfected. The sham operation group was injected with an equal volume of saline containing 0.02% ascorbic acid, and other operations were performed as above. After the procedure, the mice were placed in the cage at an appropriate temperature. After awakening from anesthesia, the mice were kept normally.
The rod-climbing experiment: the rod-climbing experiment was mainly used to test the limb movement ability of mice and to assess the symptoms of motor delay. This experiment evaluated the ability of mice to grasp and maneuver on a pole to descend to their home cage. A cork ball was fixed to an iron pole with a diameter of 1 cm and a length of 65 cm. The head of the mice was put down on the top of the pole, and the mice usually naturally descended down along the pole to return to their cage. The time for the mice to descend to the bottom was recorded. Results were averaged over 3 consecutive measurements.
The motor function of the mice was comprehensively assessed using the rod-climbing experiment and the hanging experiment at 1, 2, 3, and 4 weeks after drug administration.

**Q.** How did the “GLT-1 content in brain” value [1] turn out when `COc1cc(OC)c(OC)cc1C=C1CCC1` [CTMB, 1-(cyclobutylidenemethyl)-2,4,5-trimethoxybenzene] was run?
**A.** reduces the GLT-1 content

**Q.** What about the “ratio of GLT-1 and GABA” value [1] of the same molecule?
**A.** significantly reduces the ratio of GLT-1 and GABA

**Q.** What about the “Rod-climbing time, 1 week of administration” value [2] of the same molecule?
**A.** 6.38 ± 1.22 s

**Q.** And the “Rod-climbing time, 2 weeks of administration” value [2]?
**A.** 6.41 ± 1.12 s

**Q.** And the “Rod-climbing time, 3 weeks of administration” value [2]?
**A.** 5.50 ± 1.02^#, * s

**Q.** And the “Rod-climbing time, 4 weeks of administration” value [2]?
**A.** 5.28 ± 0.92^#, * s

**Q.** What about the “Rod-climbing time, Before administration” value ([2]; baseline 2 weeks after 6-OHDA) of the same molecule?
**A.** 9.29 ± 1.92 s
